Source: patent publication US10131657B2, “Bromodomain inhibitors” (AbbVie Inc., priority 2013, dated 2018)

System: breast cancer cell line MX-1
Assay: MX-1 cell line proliferation assay, Method B
Format: cell-based
Conditions: Homo sapiens, MX1; MX-1 cells, 384-well, 72 hours, Cell Titer Glo; read-out: Cellular proliferation: EC50 Method B
Protocol: The impact of compounds of the Examples on cancer cell proliferation was determined using the breast cancer cell line MX-1 (ATCC) in a 3-day proliferation assay and the data are reported in Table 1.
MX-1 cells were maintained in RPMI 1640 medium (Sigma) supplemented with 10% FBS at 37° C. and an atmosphere of 5% CO2. For compound testing, MX-1 cells were plated in 384-well white with clear, flat bottom plates at a density of 750 cells/well in 25 μL of culture media and incubated at 370 overnight to allow cell adhesion and spreading. Ten point compound dilution series were prepared in DMSO via a 3-fold serial dilution from either 10 μM or 1 μM stock and added directly to the appropriate wells of the MX-1 cell plate by an ECHO liquid handler (Labcyte). The final compound concentrations in the wells were 10, 3.25, 1, 0.25, 0.124, 0.040, 0.0124, 0.0031, 0.0015 and 0.0005 μM or 1, 0.33, 0.1, 0.025, 0.0124, 0.004, 0.0012, 0.0003, 0.00015, 0.00005 μM, depending on the concentration of the compound stock solution.
Luminescence readings from the Cell Titer Glo assay were normalized to the DMSO treated cells and analyzed using Accelrys Assay Explorer 3.3 software with sigmoidal curve fitting to obtain EC50s. The minimum significant ratio (MSR) was determined to evaluate assay reproducibility (Eastwood et al., (2006) J Biomol Screen, 11: 253-261). The overall MSR was determined to be 3.3 and a moving MSR (last six run MSR overtime) has averaged 2.1.

Row | Compound | EC50 [nM]
1 | Cc1noc(C2CCCN2Cc2cc3c(-c4cc(S(C)(=O)=O)ccc4Oc4ccc(F)cc4F)cn(C)c(=O)c3[nH]2)n1 (stereo not shown) [Example 131, 4-[2-(2,4-difluorophenoxy)-5-(methylsulfonyl)phenyl]-6-methyl-2-{[2-(3-methyl-1,2,4-oxadiazol-5-yl)pyrrolidin-1-yl]methyl}-1,6-dihydro-7H-pyrrolo[2,3-c]pyridin-7-one] | 827
2 | Cn1cc(-c2cc(S(C)(=O)=O)ccc2Oc2ccc(F)cc2F)c2cc(CN3CCN(c4ccccn4)CC3)[nH]c2c1=O [Example 132, 4-[2-(2,4-difluorophenoxy)-5-(methylsulfonyl)phenyl]-6-methyl-2-{[4-(pyridin-2-yl)piperazin-1-yl]methyl}-1,6-dihydro-7H-pyrrolo[2,3-c]pyridin-7-one] | 653
3 | CCNC(=O)/C=C/c1cc2c(-c3cc(S(=O)(=O)CC)ccc3Oc3c(C)cccc3C)cn(C)c(=O)c2[nH]1 [Example 134, (2E)-3-{4-[2-(2,6-dimethylphenoxy)-5-(ethylsulfonyl)phenyl]-6-methyl-7-oxo-6,7-dihydro-1H-pyrrolo[2,3-c]pyridin-2-yl}-N-ethylprop-2-enamide] | 238
4 | Cc1cccc(C)c1Oc1ccc(S(C)(=O)=O)cc1-c1cn(C)c(=O)c2[nH]c(-c3nc(C4CCCCC4)no3)cc12 [Example 136, 2-(3-cyclohexyl-1,2,4-oxadiazol-5-yl)-4-[2-(2,6-dimethylphenoxy)-5-(methylsulfonyl)phenyl]-6-methyl-1,6-dihydro-7H-pyrrolo[2,3-c]pyridin-7-one] | > 1000
5 | Cc1cccc(C)c1Oc1ccc(S(C)(=O)=O)cc1-c1cn(C)c(=O)c2[nH]c(-c3nc(-c4ccccc4)no3)cc12 [Example 137, 4-[2-(2,6-dimethylphenoxy)-5-(methylsulfonyl)phenyl]-6-methyl-2-(3-phenyl-1,2,4-oxadiazol-5-yl)-1,6-dihydro-7H-pyrrolo[2,3-c]pyridin-7-one] | > 1000
6 | Cc1cccc(C)c1Oc1ccc(S(C)(=O)=O)cc1-c1cn(C)c(=O)c2[nH]c(-c3nc(-c4cccnc4)no3)cc12 [Example 138, 4-[2-(2,6-dimethylphenoxy)-5-(methylsulfonyl)phenyl]-6-methyl-2-[3-(pyridin-3-yl)-1,2,4-oxadiazol-5-yl]-1,6-dihydro-7H-pyrrolo[2,3-c]pyridin-7-one] | 465
7 | Cc1cccc(C)c1Oc1ccc(S(C)(=O)=O)cc1-c1cn(C)c(=O)c2[nH]c(-c3nc(-c4ccccn4)no3)cc12 [Example 139, 4-[2-(2,6-dimethylphenoxy)-5-(methylsulfonyl)phenyl]-6-methyl-2-[3-(pyridin-2-yl)-1,2,4-oxadiazol-5-yl]-1,6-dihydro-7H-pyrrolo[2,3-c]pyridin-7-one] | 532
8 | Cc1cccc(C)c1Oc1ccc(S(C)(=O)=O)cc1-c1cn(C)c(=O)c2[nH]c(-c3nc(-c4cnccn4)no3)cc12 [Example 140, 4-[2-(2,6-dimethylphenoxy)-5-(methylsulfonyl)phenyl]-6-methyl-2-[3-(pyrazin-2-yl)-1,2,4-oxadiazol-5-yl]-1,6-dihydro-7H-pyrrolo[2,3-c]pyridin-7-one] | 491
9 | Cc1cccc(C)c1Oc1ccc(S(C)(=O)=O)cc1-c1cn(C)c(=O)c2[nH]c(-c3nc(C4CCOCC4)no3)cc12 [Example 141, 4-[2-(2,6-dimethylphenoxy)-5-(methylsulfonyl)phenyl]-6-methyl-2-[3-(tetrahydro-2H-pyran-4-yl)-1,2,4-oxadiazol-5-yl]-1,6-dihydro-7H-pyrrolo[2,3-c]pyridin-7-one] | 443
10 | Cc1cccc(C)c1Oc1ccc(S(C)(=O)=O)cc1-c1cn(C)c(=O)c2[nH]c(-c3nc(-c4cscn4)no3)cc12 [Example 142, 4-[2-(2,6-dimethylphenoxy)-5-(methylsulfonyl)phenyl]-6-methyl-2-[3-(1,3-thiazol-4-yl)-1,2,4-oxadiazol-5-yl]-1,6-dihydro-7H-pyrrolo[2,3-c]pyridin-7-one] | 615
11 | CCN(CC)C(C)(C)CNC(=O)c1cc2c(-c3cc(S(C)(=O)=O)ccc3Oc3c(C)cccc3C)cn(C)c(=O)c2[nH]1 [Example 143, N-[2-(diethylamino)-2-methylpropyl]-4-[2-(2,6-dimethylphenoxy)-5-(methylsulfonyl)phenyl]-6-methyl-7-oxo-6,7-dihydro-1H-pyrrolo[2,3-c]pyridine-2-carboxamide] | 532
12 | CCN(CC)CCCCNC(=O)c1cc2c(-c3cc(S(C)(=O)=O)ccc3Oc3c(C)cccc3C)cn(C)c(=O)c2[nH]1 [Example 144, N-[4-(diethylamino)butyl]-4-[2-(2,6-dimethylphenoxy)-5-(methylsulfonyl)phenyl]-6-methyl-7-oxo-6,7-dihydro-1H-pyrrolo[2,3-c]pyridine-2-carboxamide] | 498
13 | CCNC(=O)c1cc2c(-c3cc(S(=O)(=O)CC)ccc3Oc3c(C)cccc3CN3CCOCC3)cn(C)c(=O)c2[nH]1 [Example 146, N-ethyl-4-{5-(ethylsulfonyl)-2-[2-methyl-6-(morpholin-4-ylmethyl)phenoxy]phenyl}-6-methyl-7-oxo-6,7-dihydro-1H-pyrrolo[2,3-c]pyridine-2-carboxamide] | 9320
14 | CCNC(=O)c1cc2c(-c3cc(S(=O)(=O)CC)ccc3Oc3c(C)cccc3CN3CCCCC3)cn(C)c(=O)c2[nH]1 [Example 147, N-ethyl-4-{5-(ethylsulfonyl)-2-[2-methyl-6-(piperidin-1-ylmethyl)phenoxy]phenyl}-6-methyl-7-oxo-6,7-dihydro-1H-pyrrolo[2,3-c]pyridine-2-carboxamide] | 6320
15 | CCNC(=O)c1cc2c(-c3cc(S(=O)(=O)CC)ccc3Oc3c(C)cccc3CCc3ccccc3)cn(C)c(=O)c2[nH]1 [Example 148, N-ethyl-4-{5-(ethylsulfonyl)-2-[2-methyl-6-(2-phenylethyl)phenoxy]phenyl}-6-methyl-7-oxo-6,7-dihydro-1H-pyrrolo[2,3-c]pyridine-2-carboxamide] | 1680
16 | CCS(=O)(=O)c1ccc(OC2CCCCC2)c(-c2cn(C)c(=O)c3[nH]c(-c4cnn(C5CCNCC5)c4)cc23)c1 [Example 149, 4-[2-(cyclohexyloxy)-5-(ethylsulfonyl)phenyl]-6-methyl-2-[1-(piperidin-4-yl)-1H-pyrazol-4-yl]-1,6-dihydro-7H-pyrrolo[2,3-c]pyridin-7-one] | 1.18
17 | CCNC(=O)c1cc2c(-c3cc(S(=O)(=O)CC)ccc3Oc3c(C)cccc3Cn3ccnc3)cn(C)c(=O)c2[nH]1 [Example 150, N-ethyl-4-{5-(ethylsulfonyl)-2-[2-(1H-imidazol-1-ylmethyl)-6-methylphenoxy]phenyl}-6-methyl-7-oxo-6,7-dihydro-1H-pyrrolo[2,3-c]pyridine-2-carboxamide] | > 10000
18 | CCNC(=O)c1cc2c(-c3cc(S(=O)(=O)CC)ccc3Oc3c(C)cccc3CN3CCCS3(=O)=O)cn(C)c(=O)c2[nH]1 [Example 152, 4-[2-{2-[(1,1-dioxido-1,2-thiazolidin-2-yl)methyl]-6-methylphenoxy}-5-(ethylsulfonyl)phenyl]-N-ethyl-6-methyl-7-oxo-6,7-dihydro-1H-pyrrolo[2,3-c]pyridine-2-carboxamide] | 8140
19 | CCNC(=O)c1cc2c(-c3ccc(C(=O)N(CC(=O)NC)Cc4ccccn4)cc3Oc3c(C)cccc3C)cn(C)c(=O)c2[nH]1 [Example 153, 4-[2-(2,6-dimethylphenoxy)-4-{[2-(methylamino)-2-oxoethyl](pyridin-2-ylmethyl)carbamoyl}phenyl]-N-ethyl-6-methyl-7-oxo-6,7-dihydro-1H-pyrrolo[2,3-c]pyridine-2-carboxamide] | > 10000
20 | Cn1cc(-c2cc(S(C)(=O)=O)ccc2Oc2ccc(F)cc2F)c2cc(CN3CC(n4cncn4)C3)[nH]c2c1=O [Example 156, 4-[2-(2,4-difluorophenoxy)-5-(methylsulfonyl)phenyl]-6-methyl-2-{[3-(1H-1,2,4-triazol-1-yl)azetidin-1-yl]methyl}-1,6-dihydro-7H-pyrrolo[2,3-c]pyridin-7-one] | 332
21 | Cn1cc(-c2cc(S(C)(=O)=O)ccc2Oc2ccc(F)cc2F)c2cc(CNCCC(N)=O)[nH]c2c1=O [Example 159, 3-[({4-[2-(2,4-difluorophenoxy)-5-(methylsulfonyl)phenyl]-6-methyl-7-oxo-6,7-dihydro-1H-pyrrolo[2,3-c]pyridin-2-yl}methyl)amino]propanamide] | 599

System: breast cancer cell line MX-1
Assay: MX-1 cell line proliferation assay, Method A
Format: cell-based
Conditions: Homo sapiens, MX1; MX-1 cells, 96-well, 72 hours, Cell Titer Glo; read-out: Cellular proliferation: EC50 Method A
Outline: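 MX-1 breast cancer cells (5000/well) were attached overnight in RPMI 1640 with 10% FBS, then exposed for 3 days to compound at 0.0001–3 μM final. Cell Titer Glo luminescence was normalized to DMSO controls, and EC50s were obtained by sigmoidal fitting.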

Row | Compound | EC50 [nM]
22 | CCS(=O)(=O)Nc1ccc(Oc2ccc(F)cc2F)c(-c2cn(C)c(=O)c3[nH]c(C#CCOC)cc23)c1 [Example 163, N-{4-(2,4-difluorophenoxy)-3-[2-(3-methoxyprop-1-yn-1-yl)-6-methyl-7-oxo-6,7-dihydro-1H-pyrrolo[2,3-c]pyridin-4-yl]phenyl}ethanesulfonamide] | 47.7
